Values joined by “and” are separate entries in the source; they are usually repeats but may differ in a detail not shown here. Identical values can stand only once. Records with an inconclusive call do not appear.

The test system of the assay is nude mice, LX-1 lung xenograft intrarenal, tumor weight T/C. In words: NCI In Vivo Anticancer Drug Screen. Data for tumor model Human Lung LX-1 Xenograft (intrarenal inoculation) in NU/NU Swiss (nude) mice. Particulars: endpoint: mean tumor weight change, higher = larger tumour. Summed up: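 Compound-treated mice carrying transplanted tumors were compared with vehicle-treated controls. Tumor size was the measured end point, and the value is the treated-group measurement divided by the control-group measurement (T/C).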
(In general: Xenograft models place foreign cells or tissue in a host animal.)

The mark [1] stands for this setting: dose: 12.5 mg/kg/injection, schedule: Q01DX010 (sc), vehicle: saline.

For the molecule `CC[C@]1(O)C[C@H]2CN(CCc3c([nH]c4ccccc34)[C@@](C(=O)OC)(c3cc4c(cc3OC)N(C=O)[C@H]3[C@@](O)(C(=O)OC)[C@H](OC(C)=O)[C@]5(CC)C=CCN6CC[C@]43[C@@H]65)C2)C1`, the T/C reads like this: (dose: 0.13 mg/kg/injection, schedule: Q01DX010 (sc), vehicle: saline) 69 % of control; (dose: 0.25 mg/kg/injection, schedule: Q01DX010 (sc), vehicle: saline) 102 % of control; (dose: 0.5 mg/kg/injection, schedule: Q01DX010 (sc), vehicle: saline) 1 % of control.

`COc1cc(Cc2nccc3cc(OC)c(OC)cc23)c(C(C)=O)cc1OC`: the T/C was 87 % of control (dose: 150.0 mg/kg/injection, schedule: Q04DX003 (sc), vehicle: saline); 88 % of control (dose: 300.0 mg/kg/injection, schedule: Q04DX003 (sc), vehicle: saline); 99 % of control (dose: 600.0 mg/kg/injection, schedule: Q04DX003 (sc), vehicle: saline); 87 % of control (dose: 1200.0 mg/kg/injection, schedule: Q04DX003 (sc), vehicle: saline).

For the molecule `C1OC1C1CO1` (centres undefined), the T/C is 106 % of control under setting [1]; 80 % of control (dose: 25.0 mg/kg/injection, schedule: Q01DX010 (sc), vehicle: saline); 66 % of control (dose: 50.0 mg/kg/injection, schedule: Q01DX010 (sc), vehicle: saline).

As to `CC1OC1C(=O)C1(O)C(C)C(O)C23OC2(C(O)c2c(O)cccc2C3=O)C1O` (centres undefined), the T/C (dose: 6.0 mg/kg/injection, schedule: Q04DX003 (sc), vehicle: Klucel (hydroxypropylcellulose) (HPC)) was 83 % of control; the T/C (dose: 12.0 mg/kg/injection, schedule: Q04DX003 (sc), vehicle: Klucel (hydroxypropylcellulose) (HPC)) is 98 % of control; the T/C (dose: 24.0 mg/kg/injection, schedule: Q04DX003 (sc), vehicle: Klucel (hydroxypropylcellulose) (HPC)) was 110 % of control; the T/C (dose: 48.0 mg/kg/injection, schedule: Q04DX003 (sc), vehicle: Klucel (hydroxypropylcellulose) (HPC)) is 41 % of control.

On to `C=C1C(=O)O[C@@H]2[C@H](O)[C@@H](C)[C@@H]3C=CC(=O)[C@@]3(C)[C@H](OC(=O)C=C(C)C)[C@H]12`, for which the T/C reads like this: (dose: 9.38 mg/kg/injection, schedule: Q04DX003 (sc), vehicle: saline with Tween-80) 95 % of control; (dose: 18.75 mg/kg/injection, schedule: Q04DX003 (sc), vehicle: saline with Tween-80) 101 % of control; (dose: 37.5 mg/kg/injection, schedule: Q04DX003 (sc), vehicle: saline with Tween-80) 100 % of control.

In the case of `CCCN1COC(OCC)C(C)(C)C1` (centres undefined), the T/C runs as follows: (dose: 150.0 mg/kg/injection, schedule: Q04DX003 (sc), vehicle: saline with Tween-80) 92 % of control; (dose: 300.0 mg/kg/injection, schedule: Q04DX003 (sc), vehicle: saline with Tween-80) 90 % of control; (dose: 600.0 mg/kg/injection, schedule: Q04DX003 (sc), vehicle: saline with Tween-80) 106 % of control; (dose: 1200.0 mg/kg/injection, schedule: Q04DX003 (sc), vehicle: saline with Tween-80) 107 % of control.

With `Nc1nc(=S)c2ncn(C3CC(O)C(CO)O3)c2[nH]1` (centres undefined), the T/C (dose: 0.31 mg/kg/injection, schedule: Q01DX010 (sc), vehicle: saline with Tween-80) was 108 % of control; the T/C (dose: 0.63 mg/kg/injection, schedule: Q01DX010 (sc), vehicle: saline with Tween-80) is 66 % of control; the T/C (dose: 1.25 mg/kg/injection, schedule: Q01DX010 (sc), vehicle: saline with Tween-80) was 85 % of control; the T/C (dose: 2.5 mg/kg/injection, schedule: Q01DX010 (sc), vehicle: saline with Tween-80) was 83 % of control.

For `Nc1ccc2nc3ccc(N)cc3[n+](-c3ccccc3)c2c1`, the T/C by setting is: (dose: 36.0 mg/kg/injection, schedule: Q04DX003 (sc), vehicle: saline) 110 % of control; (dose: 72.0 mg/kg/injection, schedule: Q04DX003 (sc), vehicle: saline) 70 % of control.

On to `COc1cc2c(c(OC)c1OC)-c1ccc(OC)c(=O)cc1[C@@H](NC(=O)CCl)CC2`, for which the T/C runs as follows: (dose: 1.25 mg/kg/injection, schedule: Q04DX003 (sc), vehicle: saline with Tween-80) 76 % of control; (dose: 2.5 mg/kg/injection, schedule: Q04DX003 (sc), vehicle: saline with Tween-80) 77 % of control; (dose: 5.0 mg/kg/injection, schedule: Q04DX003 (sc), vehicle: saline with Tween-80) 42 % of control.

As to `CC[N](CC)[Ge]([CH2]C)[CH2]C.CC[N](CC)[Ge]([CH2]C)[CH2]C`, the T/C was 67 % of control (dose: 12.5 mg/kg/injection, schedule: Q01DX010 (sc), vehicle: suspension in saline); 89 % of control (dose: 25.0 mg/kg/injection, schedule: Q01DX010 (sc), vehicle: suspension in saline); 77 % of control (dose: 50.0 mg/kg/injection, schedule: Q01DX010 (sc), vehicle: suspension in saline).

In the case of `Cc1c2c(ccc3ccccc32)c[n+]2ccccc12`, the T/C reads like this: (dose: 3.13 mg/kg/injection, schedule: Q01DX010 (sc), vehicle: saline) 59 % of control; (dose: 6.25 mg/kg/injection, schedule: Q01DX010 (sc), vehicle: saline) 83 % of control; under setting [1], 38 % of control.

As for `NC(Cn1ccc(=O)c(O)c1)C(=O)O` (centres undefined), the T/C reads like this: (dose: 300.0 mg/kg/injection, schedule: Q04DX003 (sc), vehicle: suspension in saline) 115 % of control; (dose: 600.0 mg/kg/injection, schedule: Q04DX003 (sc), vehicle: suspension in saline) 104 % of control; (dose: 1200.0 mg/kg/injection, schedule: Q04DX003 (sc), vehicle: suspension in saline) 119 % of control; (dose: 2400.0 mg/kg/injection, schedule: Q04DX003 (sc), vehicle: suspension in saline) 73 % of control.

For `C/C=C/C=C1/OC(C)=C(C(C)=O)C1=O`, the T/C by setting is: (dose: 100.0 mg/kg/injection, schedule: Q04DX003 (sc), vehicle: saline with Tween-80) 107 % of control; (dose: 200.0 mg/kg/injection, schedule: Q04DX003 (sc), vehicle: saline with Tween-80) 97 % of control; (dose: 400.0 mg/kg/injection, schedule: Q04DX003 (sc), vehicle: saline with Tween-80) 110 % of control; (dose: 800.0 mg/kg/injection, schedule: Q04DX003 (sc), vehicle: saline with Tween-80) 92 % of control.

Turning to `Cc1cc(N/N=C/c2ccccn2)nc2ccccc12`, the T/C is 89 % of control (dose: 150.0 mg/kg/injection, schedule: Q04DX003 (sc), vehicle: Klucel (hydroxypropylcellulose) (HPC)); 103 % of control (dose: 300.0 mg/kg/injection, schedule: Q04DX003 (sc), vehicle: Klucel (hydroxypropylcellulose) (HPC)); 115 % of control (dose: 600.0 mg/kg/injection, schedule: Q04DX003 (sc), vehicle: Klucel (hydroxypropylcellulose) (HPC)); 98 % of control (dose: 1200.0 mg/kg/injection, schedule: Q04DX003 (sc), vehicle: Klucel (hydroxypropylcellulose) (HPC)).

On to `OCCN1CCN(CC/C=C2/c3ccccc3Sc3ccc(C(F)(F)F)cc32)CC1`, for which the T/C is 54 % of control (dose: 10.0 mg/kg/injection, schedule: Q01DX010 (sc), vehicle: saline); 45 % of control (dose: 20.0 mg/kg/injection, schedule: Q01DX010 (sc), vehicle: saline); 29 % of control (dose: 40.0 mg/kg/injection, schedule: Q01DX010 (sc), vehicle: saline).

With `CCC(C(=O)O)C(=O)O.[NH2-].[NH2-].[Pt+2]`, the T/C is 110 % of control (dose: 37.5 mg/kg/injection, schedule: Q04DX003 (sc), vehicle: saline); 54 % of control (dose: 75.0 mg/kg/injection, schedule: Q04DX003 (sc), vehicle: suspension in saline); 92 % of control (dose: 100.0 mg/kg/injection, schedule: Q04DX003 (sc), vehicle: saline); 46 % of control (dose: 100.0 mg/kg/injection, schedule: Q04DX003 (sc), vehicle: suspension in saline); 40 % of control (dose: 150.0 mg/kg/injection, schedule: Q04DX003 (sc), vehicle: suspension in saline); 76 % of control (dose: 200.0 mg/kg/injection, schedule: Q04DX003 (sc), vehicle: saline). The T/C (dose: 200.0 mg/kg/injection, schedule: Q04DX003 (sc), vehicle: suspension in saline) was 27 % of control.

For the molecule `C[C@@]1(CO)[C@H](O)CC[C@@]2(C)[C@H]1CC[C@H]1C[C@@H]3C[C@@]12CC[C@@]3(O)COC(=O)CN`, the T/C (dose: 133.0 mg/kg/injection, schedule: Q01DX010 (sc), vehicle: saline + alcohol) was 101 % of control; the T/C (dose: 200.0 mg/kg/injection, schedule: Q01DX010 (sc), vehicle: saline + alcohol) is 106 % of control; the T/C (dose: 62.5 micrograms/kg/injection, schedule: Q01DX010 (sc), vehicle: saline + alcohol) is 102 % of control; the T/C (dose: 500.0 micrograms/kg/injection, schedule: Q01DX010 (sc), vehicle: saline + alcohol) is 115 % of control.

For the molecule `CCCCc1ccc2nc(NC(=O)OC)[nH]c2c1`, the T/C was 53 % of control and 78 % of control (dose: 100.0 mg/kg/injection, schedule: Q01DX010 (sc), vehicle: saline with Tween-80); 84 % of control (dose: 1600.0 mg/kg/injection, schedule: Q01DX010 (sc), vehicle: saline with Tween-80).

The values are drawn from PubChem BioAssay AID264 (DTP/NCI, 2004).
